Tests used:
Dihydrofolate reductase = target: T1, Dihydrofolate reductase (Homo sapiens, UniProt P00374); assay: Inhibition of recombinant human DHFR using dihydrofolate as substrate after 15 mins in presence of NADPH
T1 sequence (P00374 whole entry): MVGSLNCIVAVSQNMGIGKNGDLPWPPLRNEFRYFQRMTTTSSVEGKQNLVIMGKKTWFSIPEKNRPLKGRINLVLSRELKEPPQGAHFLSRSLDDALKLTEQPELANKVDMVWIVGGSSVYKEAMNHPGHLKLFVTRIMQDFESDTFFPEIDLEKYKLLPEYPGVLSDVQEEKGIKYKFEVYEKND

HeLa = assay: cells; conditions: Homo sapiens, 48 h
Description: Antiproliferative activity against human HeLa cells after 48 hrs by MTS assay

NCI-H1299 = assay: Antiproliferative activity against human NCI-H1299 cells after 48 hrs by MTS assay; assay type: functional, cell-based; conditions: NCI-H1299, 48 h
A549 = assay: Antiproliferative activity against human A549 cells after 48 hrs by MTS assay; assay type: functional, cell-based; conditions: A549, 48 h
HL-60 [1] = assay: Antiproliferative activity against human HL60 cells after 48 hrs by MTS assay; assay type: functional, cell-based; conditions: HL-60, 48 h
HL-60 [2] = assay: Cell cycle arrest in human HL60 cells assessed as G2/M phase at 0.2 uM after 24 hrs by propidium iodide staining based flow cytometry (reference value: 12.2 +/- 1.1%); assay type: functional
HL-60 [3] = assay: Cell cycle arrest in human HL60 cells assessed as G1 phase at 0.4 uM after 24 hrs by propidium iodide staining based flow cytometry (reference value: 29.1 +/- 0.5%); assay type: functional
HL-60 [4] = assay: Cell cycle arrest in human HL60 cells assessed as S phase at 0.2 uM after 24 hrs by propidium iodide staining based flow cytometry (reference value: 58.7 +/- 0.8%); assay type: functional
HL-60 [5] = assay: Cell cycle arrest in human HL60 cells assessed as G2/M phase at 0.4 uM after 24 hrs by propidium iodide staining based flow cytometry (reference value: 12.2 +/- 1.1%); assay type: functional
HL-60 [6] = assay: Cell cycle arrest in human HL60 cells assessed as G2/M phase at 0.1 uM after 24 hrs by propidium iodide staining based flow cytometry (reference value: 12.2 +/- 1.1%); assay type: functional
HL-60 [7] = assay: Cell cycle arrest in human HL60 cells assessed as S phase at 0.05 uM after 24 hrs by propidium iodide staining based flow cytometry (reference value: 58.7 +/- 0.8%); assay type: functional
HL-60 [8] = assay: Cell cycle arrest in human HL60 cells assessed as G1 phase at 0.05 uM after 24 hrs by propidium iodide staining based flow cytometry (reference value: 29.1 +/- 0.5%); assay type: functional
HL-60 [9] = assay: Cell cycle arrest in human HL60 cells assessed as S phase at 0.8 uM after 24 hrs by propidium iodide staining based flow cytometry (reference value: 58.7 +/- 0.8%); assay type: functional
HL-60 [10] = assay: Cell cycle arrest in human HL60 cells assessed as G2/M phase at 0.8 uM after 24 hrs by propidium iodide staining based flow cytometry (reference value: 12.2 +/- 1.1%); assay type: functional
HL-60 [11] = assay: Cell cycle arrest in human HL60 cells assessed as G1 phase at 0.1 uM after 24 hrs by propidium iodide staining based flow cytometry (reference value: 29.1 +/- 0.5%); assay type: functional
HL-60 [12] = assay: Cell cycle arrest in human HL60 cells assessed as G2/M phase at 0.05 uM after 24 hrs by propidium iodide staining based flow cytometry (reference value: 12.2 +/- 1.1%); assay type: functional
HL-60 [13] = assay: Cell cycle arrest in human HL60 cells assessed as G1 phase at 0.8 uM after 24 hrs by propidium iodide staining based flow cytometry (reference value: 29.1 +/- 0.5%); assay type: functional
HL-60 [14] = assay: Cell cycle arrest in human HL60 cells assessed as S phase at 0.4 uM after 24 hrs by propidium iodide staining based flow cytometry (reference value: 58.7 +/- 0.8%); assay type: functional
HL-60 [15] = assay: Cell cycle arrest in human HL60 cells assessed as S phase at 0.1 uM after 24 hrs by propidium iodide staining based flow cytometry (reference value: 58.7 +/- 0.8%); assay type: functional
HL-60 [16] = assay: Cell cycle arrest in human HL60 cells assessed as G1 phase at 0.2 uM after 24 hrs by propidium iodide staining based flow cytometry (reference value: 29.1 +/- 0.5%); assay type: functional

SMILES	IC50 (Dihydrofolate reductase)	IC50 (HeLa)	IC50 (NCI-H1299)	IC50 (A549)	IC50 (HL-60 [1])	further results
Nc1nc(N)c2nc(CCc3ccc(Br)cc3)ccc2n1	1.26 µM	4.3 µM	1.49 µM	22.6 µM	0.12 µM	
COc1cccc(CCc2ccc3nc(N)nc(N)c3n2)c1	0.45 µM	14.3 µM	7.03 µM	14.4 µM	0.42 µM	
Nc1nc(N)c2nc(/C=C/c3ccc(Cl)cc3)ccc2n1	16.9 µM	7.6 µM	9.39 µM	8.17 µM	3.8 µM	
Nc1nc(N)c2nc(CCc3ccccc3)ccc2n1	2.25 µM	8.61 µM	9.16 µM	9.78 µM	0.36 µM	
Nc1nc(N)c2nc(/C=C/c3ccccc3)ccc2n1	5.33 µM	13.4 µM	15.2 µM	13.9 µM	3.85 µM	
CC(C)c1ccc(CCc2ccc3nc(N)nc(N)c3n2)cc1	19 µM	14 µM		15.9 µM	0.49 µM	
Nc1nc(N)c2nc(/C=C/c3ccc(Br)cc3)ccc2n1	14.8 µM	9.2 µM	6.19 µM	11.9 µM	2.51 µM	
COc1cc(CCc2ccc3nc(N)nc(N)c3n2)cc(OC)c1OC	0.29 µM	2.9 µM	2.17 µM	11.6 µM	0.42 µM	Activity (HL-60 [2]): 6.6%; Activity (HL-60 [3]): 18%; Activity (HL-60 [4]): 73.2%; Activity (HL-60 [5]): 4.4%; Activity (HL-60 [6]): 10%; Activity (HL-60 [7]): 63%; Activity (HL-60 [8]): 26.3%; Activity (HL-60 [9]): 88.5%; Activity (HL-60 [10]): 1.5%; Activity (HL-60 [11]): 25.7%; Activity (HL-60 [12]): 10.7%; Activity (HL-60 [13]): 10%; Activity (HL-60 [14]): 77.6%; Activity (HL-60 [15]): 64.3%; Activity (HL-60 [16]): 20.2%
COc1ccccc1/C=C/c1ccc2nc(N)nc(N)c2n1	3.61 µM	13.8 µM	8.63 µM	7.56 µM	3.6 µM	
CCc1ccc(/C=C/c2ccc3nc(N)nc(N)c3n2)cc1	5.28 µM	9.86 µM	4.86 µM	9.13 µM	1.19 µM	
Cc1ccc(CCc2ccc3nc(N)nc(N)c3n2)cc1	2.55 µM	52.4 µM	1.61 µM	34.1 µM	0.31 µM	
Nc1nc(N)c2nc(CCc3ccc(Cl)cc3)ccc2n1	2.84 µM	5.3 µM	1.06 µM	16.3 µM	0.27 µM	
Nc1nc(N)c2nc(/C=C/c3ccc(F)cc3)ccc2n1	4.78 µM	7.98 µM	5.99 µM	6.78 µM	2.61 µM	
COc1cc(/C=C/c2ccc3nc(N)nc(N)c3n2)cc(OC)c1OC	4 µM	2.1 µM	3.99 µM	5.34 µM	2.33 µM	
COc1ccc(CCc2ccc3nc(N)nc(N)c3n2)cc1	0.71 µM	10.5 µM	2.15 µM	18 µM	0.072 µM	
Cc1ccc(/C=C/c2ccc3nc(N)nc(N)c3n2)cc1	3.19 µM	14.5 µM		18.9 µM	4.54 µM	
COc1cccc(/C=C/c2ccc3nc(N)nc(N)c3n2)c1	4.13 µM	18.8 µM	12.2 µM	9.1 µM	2.03 µM	
Nc1nc(N)c2nc(CCc3ccc(F)cc3)ccc2n1	0.95 µM	54 µM	14.8 µM	4.98 µM	0.58 µM	
COc1ccc(/C=C/c2ccc3nc(N)nc(N)c3n2)cc1	4.34 µM	6.5 µM	3.73 µM	5.68 µM	1.63 µM	
COc1ccccc1CCc1ccc2nc(N)nc(N)c2n1	1.67 µM	10.4 µM	4.73 µM	29.9 µM	0.8 µM	
CC(C)c1ccc(/C=C/c2ccc3nc(N)nc(N)c3n2)cc1	20.1 µM	10.5 µM	11.2 µM	10.7 µM	1.04 µM	
CCc1ccc(CCc2ccc3nc(N)nc(N)c3n2)cc1	2.48 µM	49.4 µM	2.76 µM	15.4 µM	0.21 µM	
O=c1[nH]cc(F)c(=O)[nH]1 [FLUOROURACIL]		62.2 µM	8.91 µM		1.62 µM	

Reference: ChEMBL document CHEMBL4004829, “Synthesis and antiproliferative activity of a series of novel 6-substituted pyrido[3,2-d]pyrimidines as potential nonclassical lipophilic antifolates targeting dihydrofolate reductase” (Eur J Med Chem, 2017)
